Counter-ions that a name gives are not always drawn. Like-named read-outs stand apart in the source and are kept apart here.
Key:
Type in all cases: biochemical
[1] = biological target: T1, human JAK1 (a.a. 837-1142) (Homo sapiens, UniProt P23458); experiment: In vitro JAK kinase assay (HTRF, phosphorylation of a biotinylated peptide), JAK1; settings: read-out: JAK1 IC50
T1 construct: human JAK1 (a.a. 837-1142); His tag (N); made in house; host or cells: insect cells (baculovirus)
Summary of the method: (§1)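 Kinase reactions ran at room temperature for 1 h with ATP matched per isoform (JAK1 90 μM, JAK2 30 μM, JAK3 3 μM). After an EDTA stop, the phosphorylated biotin-peptide was read by HTRF using Eu-Py20 and SA-APC after 40 min binding.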

[2] = biological target: T2, human JAK2 (a.a. 828-1132) (Homo sapiens, UniProt O60674); experiment: In vitro JAK kinase assay (HTRF, phosphorylation of a biotinylated peptide), JAK2
T2 construct: JAK2 (a.a. 828-1132); His tag (N); made in house; host or cells: insect cells (baculovirus)
Summary of the method: as §1

[3] = biological target: T3, human JAK3 (a.a. 781-1124) (Homo sapiens, UniProt P52333); experiment: In vitro JAK kinase assay (HTRF, phosphorylation of a biotinylated peptide), JAK3
T3 construct: JAK3 (a.a. 781-1124); His tag (N); made in house; host or cells: insect cells (baculovirus)
Summary of the method: as §1

[4] = biological target: T4, Recombinant Human Anaplastic Lymphoma Kinase (Homo sapiens, UniProt Q9UM73); experiment: ALK HTRF kinase assay
T4 construct: purchased Invitrogen, Carlsbad, Calif
Summary of the method: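 Biotinylated peptide substrate, recombinant human ALK; detection via europium-chelate antibody to phosphotyrosine paired with streptavidin-APC. Potency expressed as IC50 from four-parameter curve fitting.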

TYK2 = TYK2 (Homo sapiens, UniProt P29597); experiment: TYK2 kinase inhibition (Table A1)
[5] = method AA1 (90 μM ATP) or AA2 (1000 μM ATP), not stated per value
[6] = method AA1 (30 μM ATP) or AA2 (1000 μM ATP), not stated per value
[7] = method AA1 (3 μM ATP) or AA2 (1000 μM ATP), not stated per value
[8] = compound at 500 nM or 1 mM, 90 μM ATP
[9] = compound at a concentration of 500 nM or 1 mM (not specified), cells shown as percentage
[10] = percentage inhibition of the example compound at a concentration of 500 nM or 1 mM (not specified which)
[11] = Table B1, cells without percent sign

T3 sequence (P52333 781-1124): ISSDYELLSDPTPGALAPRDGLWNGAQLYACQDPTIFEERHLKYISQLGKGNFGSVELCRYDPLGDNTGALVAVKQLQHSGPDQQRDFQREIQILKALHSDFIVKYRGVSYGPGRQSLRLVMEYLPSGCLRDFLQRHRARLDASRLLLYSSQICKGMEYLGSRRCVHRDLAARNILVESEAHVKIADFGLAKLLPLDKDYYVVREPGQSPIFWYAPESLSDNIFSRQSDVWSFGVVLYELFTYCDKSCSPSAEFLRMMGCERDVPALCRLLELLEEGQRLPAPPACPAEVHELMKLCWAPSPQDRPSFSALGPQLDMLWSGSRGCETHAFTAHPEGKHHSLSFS
TYK2, sequence (P29597 whole entry): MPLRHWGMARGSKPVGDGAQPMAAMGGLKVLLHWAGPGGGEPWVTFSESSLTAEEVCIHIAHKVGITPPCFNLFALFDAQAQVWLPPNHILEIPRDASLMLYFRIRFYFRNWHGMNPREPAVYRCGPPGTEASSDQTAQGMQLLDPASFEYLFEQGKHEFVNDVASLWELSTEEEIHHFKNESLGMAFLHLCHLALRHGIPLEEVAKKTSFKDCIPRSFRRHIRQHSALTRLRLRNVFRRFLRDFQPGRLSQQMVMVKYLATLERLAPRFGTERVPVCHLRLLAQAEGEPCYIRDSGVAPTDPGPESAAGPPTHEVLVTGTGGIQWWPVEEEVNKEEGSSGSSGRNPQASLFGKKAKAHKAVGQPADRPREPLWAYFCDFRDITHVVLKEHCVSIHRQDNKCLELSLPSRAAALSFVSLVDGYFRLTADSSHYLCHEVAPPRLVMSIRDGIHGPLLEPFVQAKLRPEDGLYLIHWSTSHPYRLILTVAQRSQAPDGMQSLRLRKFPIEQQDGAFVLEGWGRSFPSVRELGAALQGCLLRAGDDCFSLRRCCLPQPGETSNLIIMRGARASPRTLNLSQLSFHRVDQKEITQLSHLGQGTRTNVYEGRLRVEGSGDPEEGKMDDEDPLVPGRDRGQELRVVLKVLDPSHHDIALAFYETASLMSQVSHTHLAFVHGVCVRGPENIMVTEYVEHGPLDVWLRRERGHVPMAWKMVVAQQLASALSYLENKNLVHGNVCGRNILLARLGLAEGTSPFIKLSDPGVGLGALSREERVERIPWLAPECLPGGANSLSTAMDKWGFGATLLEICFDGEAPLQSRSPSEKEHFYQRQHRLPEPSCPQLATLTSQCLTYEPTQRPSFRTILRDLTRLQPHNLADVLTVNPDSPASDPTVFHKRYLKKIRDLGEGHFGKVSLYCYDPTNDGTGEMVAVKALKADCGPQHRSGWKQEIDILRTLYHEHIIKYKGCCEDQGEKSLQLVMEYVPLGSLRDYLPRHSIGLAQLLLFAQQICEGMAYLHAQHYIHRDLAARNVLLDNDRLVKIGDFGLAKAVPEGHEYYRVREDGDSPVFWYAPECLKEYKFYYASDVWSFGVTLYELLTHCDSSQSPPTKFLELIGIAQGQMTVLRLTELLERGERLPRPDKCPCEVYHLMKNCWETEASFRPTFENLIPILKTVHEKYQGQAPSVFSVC
T1 sequence (P23458 849-1154): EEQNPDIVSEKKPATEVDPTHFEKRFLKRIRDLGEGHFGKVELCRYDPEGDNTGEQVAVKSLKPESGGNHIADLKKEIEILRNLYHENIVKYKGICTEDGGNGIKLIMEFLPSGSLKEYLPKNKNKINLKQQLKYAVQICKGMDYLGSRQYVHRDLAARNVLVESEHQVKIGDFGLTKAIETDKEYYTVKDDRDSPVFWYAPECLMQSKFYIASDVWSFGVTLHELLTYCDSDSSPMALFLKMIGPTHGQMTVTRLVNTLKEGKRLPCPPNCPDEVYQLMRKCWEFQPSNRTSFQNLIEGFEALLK
T2 sequence (O60674 828-1132): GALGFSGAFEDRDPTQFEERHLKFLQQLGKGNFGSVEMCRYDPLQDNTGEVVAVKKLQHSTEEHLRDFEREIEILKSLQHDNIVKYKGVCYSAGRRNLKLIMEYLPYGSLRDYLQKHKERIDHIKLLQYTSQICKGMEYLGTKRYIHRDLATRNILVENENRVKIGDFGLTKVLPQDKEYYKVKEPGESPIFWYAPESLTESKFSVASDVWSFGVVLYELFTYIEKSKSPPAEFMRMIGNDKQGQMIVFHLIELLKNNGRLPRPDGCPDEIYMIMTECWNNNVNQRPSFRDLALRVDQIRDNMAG
T4 sequence (Q9UM73 19-1620): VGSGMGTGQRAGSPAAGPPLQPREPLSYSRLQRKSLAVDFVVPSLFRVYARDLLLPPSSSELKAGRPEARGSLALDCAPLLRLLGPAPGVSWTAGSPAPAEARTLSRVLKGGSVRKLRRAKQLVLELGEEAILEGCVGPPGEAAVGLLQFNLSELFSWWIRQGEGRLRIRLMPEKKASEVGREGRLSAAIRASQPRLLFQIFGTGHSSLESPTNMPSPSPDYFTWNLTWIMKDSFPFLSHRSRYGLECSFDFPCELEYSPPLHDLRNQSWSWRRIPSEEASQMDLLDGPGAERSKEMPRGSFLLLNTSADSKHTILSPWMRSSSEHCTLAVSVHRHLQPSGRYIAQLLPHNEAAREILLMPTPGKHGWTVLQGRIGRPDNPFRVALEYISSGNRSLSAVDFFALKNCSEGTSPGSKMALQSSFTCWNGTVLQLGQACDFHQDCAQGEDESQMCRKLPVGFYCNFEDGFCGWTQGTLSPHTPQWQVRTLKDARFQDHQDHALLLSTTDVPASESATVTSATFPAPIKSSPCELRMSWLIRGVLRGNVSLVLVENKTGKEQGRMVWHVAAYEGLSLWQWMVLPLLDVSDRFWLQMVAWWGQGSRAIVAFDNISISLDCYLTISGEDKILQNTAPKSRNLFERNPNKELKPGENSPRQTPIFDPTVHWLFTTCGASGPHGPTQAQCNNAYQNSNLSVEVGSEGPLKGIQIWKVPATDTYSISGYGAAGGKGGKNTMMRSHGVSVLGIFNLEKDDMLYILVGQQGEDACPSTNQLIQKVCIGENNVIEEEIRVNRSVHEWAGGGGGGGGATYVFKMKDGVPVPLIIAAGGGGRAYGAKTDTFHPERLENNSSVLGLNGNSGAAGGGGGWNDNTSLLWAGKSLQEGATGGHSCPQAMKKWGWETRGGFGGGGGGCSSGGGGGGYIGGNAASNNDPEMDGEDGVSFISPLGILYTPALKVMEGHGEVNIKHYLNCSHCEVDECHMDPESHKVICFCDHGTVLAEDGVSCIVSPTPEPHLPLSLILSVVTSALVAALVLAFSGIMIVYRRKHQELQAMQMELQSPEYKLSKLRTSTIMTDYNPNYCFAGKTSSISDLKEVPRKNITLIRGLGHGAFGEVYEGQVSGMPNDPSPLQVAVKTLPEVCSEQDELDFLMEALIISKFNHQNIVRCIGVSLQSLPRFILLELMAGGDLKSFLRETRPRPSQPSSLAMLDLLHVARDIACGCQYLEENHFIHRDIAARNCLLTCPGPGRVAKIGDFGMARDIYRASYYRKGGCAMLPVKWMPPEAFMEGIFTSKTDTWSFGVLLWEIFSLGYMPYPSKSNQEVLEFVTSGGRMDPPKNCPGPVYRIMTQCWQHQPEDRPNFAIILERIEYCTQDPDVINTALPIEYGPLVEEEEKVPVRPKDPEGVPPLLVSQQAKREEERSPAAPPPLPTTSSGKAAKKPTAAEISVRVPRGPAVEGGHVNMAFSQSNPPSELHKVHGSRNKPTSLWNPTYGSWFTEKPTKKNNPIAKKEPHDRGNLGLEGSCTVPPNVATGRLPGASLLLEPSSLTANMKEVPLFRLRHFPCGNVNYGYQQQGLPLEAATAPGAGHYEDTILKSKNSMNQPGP

| SMILES | IC50 ([1]; Table B1) | IC50 ([2]; Table B1) | IC50 ([3]; Table B1) | IC50 (TYK2; Table B1) | IC50 [4, 11] | also measured |
| --- | --- | --- | --- | --- | --- | --- |
| CCNC(=O)N1CCC(CC(=O)Nc2ccc3cc2CCc2cccc(c2)Nc2ncc(Cl)c(n2)N3)CC1 [Example A57, 4-(2-{[6-Chloro-2,4,8,22-tetraazatetracyclo[14.3.1.1(3,7).1(9,13)]docosa-1(20),3(22),4,6,9(21),10,12,16,18-nonaen-12-yl]amino}-2-oxoethyl)-N-ethylpiperidine-1-carboxamide trifluoroacetate] | – | – | – | – | – | IC50 [1, 5]: 5.5 nM; IC50 [2, 6]: 7.3 nM; IC50 [3, 7]: 60 nM; ALK % of inhibition at a concentration of 500 nM or 1 mM [4, 8]: 24%; IC50 (TYK2): 8.8 nM |
| Clc1cnc2nc1Nc1cccc(c1)CCCc1cccc(c1)N2 [Example A4, 6-Chloro-2,4,8,23-tetraazatetracyclo[15.3.1.1(3,7).1(9,13)]tricosa-1(21),3(23),4,6,9(22),10,12,17,19-nonaene] | – | – | – | – | – | IC50 [1, 5]: 87 nM; IC50 [2, 6]: 54 nM; IC50 [3, 7]: 45 nM; IC50 ([4]; 90 μM ATP): 925 nM; IC50 (TYK2): > 100 nM |
| CCC(C)c1ccccc1NC(=O)Nc1ccc2cc1CCc1cccc(c1)Nc1ncc(Cl)c(n1)N2 (stereo not drawn) [Example B126, N-(2-sec-Butylphenyl)-N′-[6-chloro-2,4,8,22-tetraazatetracyclo[14.3.1.1(3,7).1(9,13)]docosa-1(20),3(22),4,6,9(21),10,12,16,18-nonaen-12-yl]urea trifluoroacetate] | 8.9 nM | 20 nM | 164 nM | 52 nM | – | ALK % of inhibition at a concentration of 500 nM or 1 mM [4, 9]: 6.1% |
| O=C(Nc1ccc2cc1CCc1cncc(c1)Nc1ncc(Cl)c(n1)N2)N1CCn2c(nnc2C(F)(F)F)C1 [Example B316, N-[6-Chloro-2,4,8,18,22-pentaazatetracyclo[14.3.1.1(3,7).1(9,13)]docosa-1(20),3(22),4,6,9(21),10,12,16,18-nonaen-12-yl]-3-(trifluoromethyl)-5,6-dihydro[1,2,4]triazolo[4,3-a]pyrazine-7(8H)-carboxamide tris(trifluoroacetate)] | 16 nM | 180 nM | > 400 nM | 208 nM | – | ALK % of inhibition at a concentration of 500 nM or 1 mM [4, 10]: 64% |
| Cc1noc(C)c1NC(=O)Nc1ccc2cc1CCc1cccc(c1)Nc1ncc(Cl)c(n1)N2 [Example B94, N-[6-Chloro-2,4,8,22-tetraazatetracyclo[14.3.1.1(3,7).1(9,13)]docosa-1(20), 3(22),4,6,9(21),10,12,16,18-nonaen-12-yl]-N′-(3,5-dimethylisoxazol-4-yl)urea trifluoroacetate] | 3.1 nM | 3.8 nM | 51 nM | 13 nM | > 1000 nM | – |
| O=C(c1cc2cc(c1)OCCSc1cccc(c1)Nc1nc(ncc1Cl)N2)N1CCN(c2ccccc2)CC1 [Example D53, 6-Chloro-20-[(4-phenylpiperazin-1-yl)carbonyl]-17-oxa-14-thia-2,4,8,24-tetraazatetracyclo[16.3.1.1(3,7).1(9,13)]tetracosa-1(22),3(24),4,6,9(23),10,12,18,20-nonaene bis(trifluoroacetate)] | – | – | – | – | – | IC50 ([1]; Table D1): 27 nM; IC50 ([2]; Table D1): 34 nM; IC50 ([3]; Table D1): 273 nM; IC50 ([4]; Table D1, 90 μM ATP): 1150 nM; IC50 (TYK2; Table D1): 28 nM |
| OCc1ccc2cc1CCc1cccc(c1)Nc1ncc(Cl)c(n1)N2 [Example B23, [6-Chloro-2,4,8,22-tetraazatetracyclo[14.3.1.1(3,7).1(9,13)]docosa-1(20),3(22),4,6,9(21),10,12,16,18-nonaen-12-yl]methanol trifluoroacetate] | 0.2 nM | 0.8 nM | 1.2 nM | 1.8 nM | – | ALK % of inhibition at a concentration of 500 nM or 1 mM [4, 9]: 75% |
| O=C(Nc1ccsc1)Nc1ccc2cc1CCc1cccc(c1)Nc1ncc(Cl)c(n1)N2 [Example B89, N-[6-Chloro-2,4,8,22-tetraazatetracyclo[14.3.1.1(3,7).1(9,13)]docosa-1(20),3(22),4,6,9(21),10,12,16,18-nonaen-12-yl]-N′-3-thienylurea trifluoroacetate] | 2.4 nM | 2.9 nM | 40 nM | 16 nM | > 1000 nM | – |
| O=C(CN1CCNCC1)Nc1ccc2cc1CCc1cccc(c1)Nc1ncc(Cl)c(n1)N2 [Example A114, tris(trifluoroacetate)] | – | – | – | – | – | IC50 [1, 5]: 25 nM; IC50 [2, 6]: 13 nM; IC50 [3, 7]: 59 nM; ALK % of inhibition at a concentration of 500 nM or 1 mM [4, 8]: 19%; IC50 (TYK2): 33 nM |
| O=C(Nc1cc2cc(c1)OCCSc1cccc(c1)Nc1nc(ncc1Cl)N2)c1ccccc1 [Example D57, N-[6-Chloro-17-oxa-14-thia-2,4,8,24-tetraazatetracyclo[16.3.1.1(3,7).1(9,13)]tetracosa-1(22),3(24),4,6,9(23),10,12,18,20-nonaen-20-yl]benzamide trifluoroacetate] | – | – | – | – | – | IC50 ([1]; Table D1): 11 nM; IC50 ([2]; Table D1): 2.3 nM; IC50 ([3]; Table D1): 21 nM; IC50 ([4]; Table D1, 90 μM ATP): 430 nM; IC50 (TYK2; Table D1): 7.4 nM |
| O=C(NCCN1CCNCC1)Nc1ccc2cc1CCc1cccc(c1)Nc1ncc(Cl)c(n1)N2 [Example B260, N-[6-Chloro-2,4,8,22-tetraazatetracyclo[14.3.1.1(3,7).1(9,13)]docosa-1(20),3(22),4,6,9(21),10,12,16,18-nonaen-12-yl]-N′-(2-piperazin-1-ylethyl)urea trihydrochloride] | 4.7 nM | 9.9 nM | 51 nM | 20 nM | – | ALK % of inhibition at a concentration of 500 nM or 1 mM [4, 9]: 26% |

Continued, in another order:

| IC50 ([1]; Table B1) | IC50 ([2]; Table B1) | IC50 ([3]; Table B1) | IC50 (TYK2; Table B1) | IC50 [4, 11] | SMILES | also measured |
| --- | --- | --- | --- | --- | --- | --- |
| 107 nM | 23 nM | 64 nM | 178 nM | > 1000 nM | NS(=O)(=O)c1cc2cc(c1)Nc1nc(ncc1Br)Nc1cccc(c1)CC2 [Example B18, 6-Bromo-2,4,8,22-tetraazatetracyclo[14.3.1.1(3,7).1(9,13)]docosa-1(20),3(22),4,6,9(21),10,12,16,18-nonaene-11-sulfonamide trifluoroacetate] | – |
| 232 nM | 119 nM | 314 nM | > 1000 nM | > 1000 nM | O=C(Nc1ccccc1Cl)c1cc2cc(c1)Nc1nc(ncc1Cl)Nc1cccc(c1)CC2 [Example B14, 6-Chloro-N-(2-chlorophenyl)-2,4,8,22-tetraazatetracyclo[14.3.1.1(3,7).1(9,13)]docosa-1(20),3(22),4,6,9(21),10,12,16,18-nonaene-11-carboxamide trifluoroacetate] | – |
| 20 nM | 56 nM | 7.5 nM | 2.8 nM | – | O=C(NO)Nc1ccc2cc1CCc1cccc(c1)Nc1ncc(Cl)c(n1)N2 [Example B324, N-[6-Chloro-2,4,8,22-tetraazatetracyclo[14.3.1.1(3,7).1(9,13)]docosa-1(20),3(22),4,6,9(21),10,12,16,18-nonaen-12-yl]-N′-hydroxyurea trifluoroacetate] | ALK % of inhibition at a concentration of 500 nM or 1 mM [4, 10]: 16% |
| 14 nM | 129 nM | > 10000 nM | 348 nM | – | O=C(Nc1ccc2cc1CCc1cncc(c1)Nc1ncc(Cl)c(n1)N2)N[C@H]1CCN(c2nc3cccnc3o2)C1 [Example B275, N-[6-Chloro-2,4,8,18,22-pentaazatetracyclo[14.3.1.1(3,7).1(9,13)]docosa-1(20),3(22),4,6,9(21),10,12,16,18-nonaen-12-yl]-N′-[(3S)-1-[1,3]oxazolo[5,4-b]pyridin-2-ylpyrrolidin-3-yl]urea tris(trifluoroacetate)] | ALK % of inhibition at a concentration of 500 nM or 1 mM [4, 9]: 9.8% |
| 2.1 nM | 2.7 nM | 28 nM | 13 nM | > 1000 nM | Cc1ccccc1NC(=O)Nc1ccc2cc1CCc1cccc(c1)Nc1ncc(Cl)c(n1)N2 [Example B91, N-[6-Chloro-2,4,8,22-tetraazatetracyclo[14.3.1.1(3,7).1(9,13)]docosa-1(20), 3(22),4,6,9(21),10,12,16,18-nonaen-12-yl]-N′-(2-methylphenyl)urea trifluoroacetate] | – |
| > 1000 nM | 700 nM | > 1000 nM | > 1000 nM | > 10000 nM | O=C(Nc1ccc(F)c(Cl)c1)c1cc2cc(c1)Nc1nc(ncc1Cl)Nc1cccc(c1)CC2 [Example B7, 6-Chloro-N-(3-chloro-4-fluorophenyl)-2,4,8,22-tetraazatetracyclo[14.3.1.1(3,7).1(9,13)]docosa-1(20),3(22),4,6,9(21),10,12,16,18-nonaene-11-carboxamide trifluoroacetate] | – |
| 41 nM | 171 nM | > 200 nM | > 200 nM | – | CN(Cc1ccc2cc1CCc1cncc(c1)Nc1ncc(Cl)c(n1)N2)C(=O)C1CCN(C(=O)Nc2ccccc2)CC1 [Example B337, N(4)-{[6-chloro-2,4,8,18,22-pentaazatetracyclo[14.3.1.1(3,7).1(9,13)]docosa-1(20),3(22),4,6,9(21),10,12,16,18-nonaen-12-yl]methyl}-N(4)-methyl-N(1)-phenylpiperidine-1,4-dicarboxamide bis(trifluoroacetate)] | ALK % of inhibition at a concentration of 500 nM or 1 mM [4, 10]: 21% |

Reference: patent publication US8871753B2, “Macrocyclic compounds and their use as kinase inhibitors” (Incyte Corporation, priority 2008, dated 2014)
